Values after ≈ are worked out from the molar mass of the structure shown. Where two headings read alike, the source gives them in different places.

One series can be described thus: Solubility in PBS. It counts as physicochemical. The method in brief:
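PBS sample ultracentrifuged; supernatant run on HPLC vs. 50 μM peptide in DMSO standard. Solubility = (PBS peak area / DMSO peak area) × 50 uM.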

For series [1], the target named is T1, full-length beta-Catenin (Uniprot ID P35222) (Homo sapiens, UniProt P35222).
T1 construct: 10 nM full-length beta-Catenin (Uniprot ID P35222)
T1 sequence (P35222 1-781): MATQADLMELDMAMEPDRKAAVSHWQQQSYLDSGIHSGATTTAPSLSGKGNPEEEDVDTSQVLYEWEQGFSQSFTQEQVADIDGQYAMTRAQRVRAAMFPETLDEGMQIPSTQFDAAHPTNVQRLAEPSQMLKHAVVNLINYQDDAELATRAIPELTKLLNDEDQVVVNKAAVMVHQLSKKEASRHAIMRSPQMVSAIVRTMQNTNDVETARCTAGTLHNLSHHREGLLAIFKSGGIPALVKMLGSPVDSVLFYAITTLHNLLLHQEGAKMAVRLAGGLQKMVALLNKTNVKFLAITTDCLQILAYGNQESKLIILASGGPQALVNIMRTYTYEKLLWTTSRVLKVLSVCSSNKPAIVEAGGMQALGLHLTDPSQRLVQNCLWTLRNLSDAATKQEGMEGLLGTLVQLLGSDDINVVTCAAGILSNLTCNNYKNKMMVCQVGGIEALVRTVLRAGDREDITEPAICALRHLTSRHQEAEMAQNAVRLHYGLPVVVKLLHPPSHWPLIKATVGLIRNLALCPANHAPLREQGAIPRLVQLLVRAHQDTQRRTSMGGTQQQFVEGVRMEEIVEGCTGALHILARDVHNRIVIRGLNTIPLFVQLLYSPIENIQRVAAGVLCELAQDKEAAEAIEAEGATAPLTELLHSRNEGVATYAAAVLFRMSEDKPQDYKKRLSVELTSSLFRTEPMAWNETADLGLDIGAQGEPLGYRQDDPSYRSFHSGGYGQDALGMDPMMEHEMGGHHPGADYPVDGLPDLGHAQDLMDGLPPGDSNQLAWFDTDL
In words: Fluorescence polarization IC50 (beta-catenin / 5FAM-TCF4 10-53 competition). It counts as binding. Conditions: fluorescence polarization; read-out: beta-Catenin FP IC50.

As to `CC(=O)N1CCC[C@]12CC=CCCCC1(CCCC=CCCCOC(=O)N3CC[C@@](C(=O)N[C@@H](Cc4ccccc4Cl)C(=O)N[C@@H](Cc4csc5ccccc45)C(=O)N[C@H](C(N)=O)[C@@H](C)O)(C3)NC(=O)[C@H](CO)NC(=O)[C@H](Cc3ccccc3)NC(=O)[C@H](C)NC(=O)[C@H](C)NC(=O)[C@H](CC(=O)O)NC(=O)[C@H](CC(=O)O)NC1=O)NC(=O)[C@H](CC1CCCCC1)NC(=O)[C@H](CC(=O)O)NC2=O` (stereo partly drawn) [I-1135, Ac-PL3-Asp-Cha-B5-Asp-Asp-Ala-Ala-Phe-Ser-PyrS2-2C1F-BztA-Thr-NH2], in “Solubility in PBS” (Solubility (uM)), the concentration in solution (Solubility) came to 39 µM (≈ 74.8 µg/mL). In series [1], the IC50 was 20 nM.
Taken in the same sequence, the figures for `CC(=O)N1CCC[C@]12CC=CCCCC1(CCCC=CCCCOC(=O)N3CC[C@@](C(=O)N[C@@H](Cc4ccccc4Cl)C(=O)N[C@@H](Cc4csc5ccccc45)C(=O)N[C@@H](CC(C)C)C(N)=O)(C3)NC(=O)[C@H](CO)NC(=O)[C@H](Cc3ccccc3)NC(=O)[C@H](C)NC(=O)[C@H](C)NC(=O)[C@H](CC(=O)O)NC(=O)[C@H](CC(=O)O)NC1=O)NC(=O)[C@H](Cc1ccccc1)NC(=O)[C@H](CC(=O)O)NC2=O` (stereo partly drawn) [I-1144, Ac-PL3-Asp-Phe-B5-Asp-Asp-Ala-Ala-Phe-Ser-PyrS2-2C1F-BztA-Leu-NH2] were 32 µM (≈ 61.6 µg/mL) and 28 nM.
As to `CC(=O)N1CCC[C@]12CC=CCCCC1(CCCC=CCCCOC(=O)N3CC[C@@](C(=O)N[C@@H](Cc4ccccc4Cl)C(=O)N[C@@H](Cc4csc5ccccc45)C(=O)N[C@@H](CCC(N)=O)C(N)=O)(C3)NC(=O)[C@H](CO)NC(=O)[C@H](Cc3ccccc3)NC(=O)[C@H](CC(C)C)NC(=O)[C@H](CC(C)C)NC(=O)[C@H](CC(=O)O)NC(=O)[C@H](CC(=O)O)NC1=O)NC(=O)[C@H](CC1CCCCC1)NC(=O)[C@H](CC(=O)O)NC2=O` (stereo partly drawn) [I-1149, Ac-PL3-Asp-Cha-B5-Asp-Asp-Leu-Leu-Phe-Ser-PyrS2-2C1F-BztA-Gln-NH2], the “Solubility” value in the series “Solubility in PBS” turned out to be 10 µM (≈ 20.3 µg/mL). In addition, the IC50 in series [1] was 70 nM.
For `CC(=O)N1CCC[C@]12CC=CCCCC1(CCCC=CCCCOC(=O)N3CC[C@@](C(=O)N[C@@H](CC4CCCC4)C(=O)N[C@@H](Cc4csc5ccccc45)C(=O)N[C@@H](CCC(N)=O)C(N)=O)(C3)NC(=O)[C@H](CC(C)C)NC(=O)[C@H](Cc3ccccc3)NC(=O)[C@H](C)NC(=O)[C@H](C)NC(=O)[C@H](CC(=O)O)NC(=O)[C@H](CC(=O)O)NC1=O)NC(=O)[C@H](CC(C)(C)C)NC(=O)[C@H](CC(=O)O)NC2=O` (stereo partly drawn) [I-1353, PL3-Asp-Npg-B5-Asp-Asp-Ala-Ala-Phe-Leu-PyrS2-CypA-BztA-Gln-NH2], the concentration in solution in the series “Solubility in PBS” (Solubility (uM)) (solubility at 15 min) came to 44 µM (≈ 83.7 µg/mL).
Same read-out and setting: to `COCCC(=O)N1CCC[C@]12CC=CCCCC1(CCCC=CCCCOC(=O)N3CC[C@@](C(=O)N[C@@H](Cc4ccccc4)C(=O)N[C@@H](Cc4csc5ccccc45)C(=O)N[C@@H](CO)C(N)=O)(C3)NC(=O)[C@H](CO)NC(=O)[C@H](Cc3ccccc3)NC(=O)[C@H](C)NC(=O)[C@H](C)NC(=O)[C@H](CC(=O)O)NC(=O)[C@H](CC(=O)O)NC1=O)NC(=O)[C@H](CC(C)(C)C)NC(=O)[C@H](CC(=O)O)NC2=O` (stereo partly drawn) [I-1357, PL3-Asp-Npg-B5-Asp-Asp-Ala-Ala-Phe-Ser-PyrS2-Phe-BztA-Ser-NH2] belongs 48 µM (≈ 90.6 µg/mL).
Take `CCN(CC)C(=O)[C@H](CCC(N)=O)NC(=O)[C@H](Cc1csc2ccccc12)NC(=O)[C@H](Cc1ccsc1)NC(=O)[C@]12CCN(C1)C(=O)OCCCC=CCCCC1(CCCC=CC[C@]3(CCCN3C(C)=O)C(=O)N[C@@H](CC(=O)O)C(=O)N[C@@H](CC(C)(C)C)C(=O)N1)C(=O)N[C@@H](CC(=O)O)C(=O)N[C@@H](CC(=O)O)C(=O)N[C@@H](C)C(=O)N[C@@H](C)C(=O)N[C@@H](Cc1ccccc1)C(=O)N[C@@H](CC(N)=O)C(=O)N2` (stereo partly drawn) [I-1373, PL3-Asp-Npg-B5-Asp-Asp-Ala-Ala-Phe-Asn-PyrS2-3Thi-BztA-Gln-NEt2]: the “Solubility” value in the series “Solubility in PBS” turned out to be 50 µM (≈ 98.7 µg/mL).
On the same count and under the same terms, under `CC(=O)N1CCC[C@]12CC=CCCCC1(CCCC=CCCCOC(=O)N3CC[C@@](C(=O)N[C@@H](Cc4ccsc4)C(=O)N[C@@H](Cc4csc5ccccc45)C(=O)N[C@@H](CCC(N)=O)C(=O)NC4CCCCC4)(C3)NC(=O)[C@H](CC(N)=O)NC(=O)[C@H](Cc3ccccc3)NC(=O)[C@H](C)NC(=O)[C@H](C)NC(=O)[C@H](CC(=O)O)NC(=O)[C@H](CC(=O)O)NC1=O)NC(=O)[C@H](CC(C)(C)C)NC(=O)[C@H](CC(=O)O)NC2=O` (stereo partly drawn) [I-1374, PL3-Asp-Npg-B5-Asp-Asp-Ala-Ala-Phe-Asn-PyrS2-3Thi-BztA-Gln-NHCyHe] stands 10 µM (≈ 20 µg/mL); under `CC(=O)N1CCC[C@]12CC=CCCCC1(CCCC=CCCCOC(=O)N3CC[C@@](C(=O)N[C@@H](Cc4ccsc4)C(=O)N[C@@H](Cc4csc5ccccc45)C(=O)N[C@@H](CCC(N)=O)C(=O)NC4CC4)(C3)NC(=O)[C@H](CC(N)=O)NC(=O)[C@H](Cc3ccccc3)NC(=O)[C@H](C)NC(=O)[C@H](C)NC(=O)[C@H](CC(=O)O)NC(=O)[C@H](CC(=O)O)NC1=O)NC(=O)[C@H](CC(C)(C)C)NC(=O)[C@H](CC(=O)O)NC2=O` (stereo partly drawn) [I-1375, PL3-Asp-Npg-B5-Asp-Asp-Ala-Ala-Phe-Asn-PyrS2-3Thi-BztA-Gln-NHCyPr], 50 µM (≈ 97.9 µg/mL).
Still for that read-out and setting: under `CC(=O)N1CCC[C@]12CC=CCCCC1(CCCC=CCCCOC(=O)N3CC[C@@](C(=O)N[C@@H](Cc4ccccc4)C(=O)N[C@@H](Cc4csc5ccccc45)C(=O)N[C@@H](CCC(N)=O)C(N)=O)(C3)NC(=O)[C@H](CC(C)C)NC(=O)[C@H](Cc3ccccc3)NC(=O)[C@H](C)NC(=O)[C@H](CCCCNC(C)C)NC(=O)[C@H](CCCCN)NC(=O)[C@H](CC(N)=O)NC1=O)NC(=O)[C@H](C)NC(=O)[C@H](CC(=O)O)NC2=O` (stereo partly drawn) [I-1380, Ac-PL3-Asp-Ala-B5-Asn-Lys-iPrLys-Ala-Phe-Leu-PyrS2-Phe-BztA-Gln-NH2] stands 10 µM (≈ 19.7 µg/mL); under `CC(=O)N1CCC[C@]12CC=CCCCC1(CCCC=CCCCOC(=O)N3CC[C@@](C(=O)N[C@@H](Cc4ccccc4)C(=O)N[C@@H](Cc4ccc5ccccc5c4)C(=O)N[C@@H](CCC(N)=O)C(N)=O)(C3)NC(=O)[C@H](CC(C)C)NC(=O)[C@H](Cc3ccccc3)NC(=O)[C@H](C)NC(=O)[C@H](CCCCNC(C)C)NC(=O)[C@H]([C@@H](C)O)NC(=O)[C@H](CC(N)=O)NC1=O)NC(=O)[C@H](C)NC(=O)[C@H](CC(=O)O)NC2=O` (stereo partly drawn) [I-1381, Ac-PL3-Asp-Ala-B5-Asn-Thr-iPrLys-Ala-Phe-Leu-PyrS2-Phe-2NapA-Gln-NH2], 10 µM (≈ 19.3 µg/mL).
Same read-out and setting: under `CC(=O)N1CCC[C@]12CC=CCCCC1(CCCC=CCCCOC(=O)N3CC[C@@](C(=O)N[C@@H](Cc4ccccc4)C(=O)N[C@@H](Cc4csc5ccccc45)C(=O)N[C@H](C(N)=O)[C@@H](C)O)(C3)NC(=O)[C@H](CC(C)C)NC(=O)[C@H](Cc3ccccc3)NC(=O)[C@H](C)NC(=O)[C@H](CCCCNC(C)C)NC(=O)[C@H]([C@@H](C)O)NC(=O)[C@H](CC(=O)O)NC1=O)NC(=O)[C@H](C)NC(=O)[C@H](CC(N)=O)NC2=O` (stereo partly drawn) [I-1384, Ac-PL3-Asn-Ala-B5-Asp-Thr-iPrLys-Ala-Phe-Leu-PyrS2-Phe-BztA-Thr-NH2] stands 10 µM (≈ 19.1 µg/mL).

Values taken from patent US20240116985A1, “STAPLED PEPTIDES AND METHODS THEREOF” (priority 2020, published 2024).
